The text below walks through data of article PMC10963751, “Solar-driven sugar production directly from CO2 via a customizable electrocatalytic–biocatalytic flow system” (Nature Communications, 2024).

The target in this experiment is T1, BmfaldDH (Burkholderia multivorans, UniProt A0A0H3KP42).
T1 construct: gene fdhA2; pET28a, E. coli BL21(DE3), Ni-NTA purified (His-tagged)
T1 sequence (A0A0H3KP42 1-398): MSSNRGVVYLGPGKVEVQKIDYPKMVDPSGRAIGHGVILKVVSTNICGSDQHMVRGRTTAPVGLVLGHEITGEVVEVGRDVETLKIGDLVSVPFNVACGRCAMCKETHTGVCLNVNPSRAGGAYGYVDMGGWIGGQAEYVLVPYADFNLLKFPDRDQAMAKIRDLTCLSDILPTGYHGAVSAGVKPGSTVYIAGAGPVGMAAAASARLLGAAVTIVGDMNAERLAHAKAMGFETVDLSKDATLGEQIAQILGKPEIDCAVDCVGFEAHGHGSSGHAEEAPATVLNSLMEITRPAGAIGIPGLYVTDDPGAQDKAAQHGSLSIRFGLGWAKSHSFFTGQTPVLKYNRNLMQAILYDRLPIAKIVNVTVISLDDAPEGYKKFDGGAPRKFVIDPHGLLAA
Briefly: isothermal titration calorimetry. Type of experiment: binding. For orientation: ITC needs no label: the signal is the heat of the interaction.

As to `NC(=O)C1=CN([C@@H]2O[C@H](COP(=O)(O)OP(=O)(O)OC[C@H]3O[C@@H](n4cnc5c(N)ncnc54)[C@H](O)[C@@H]3O)[C@@H](O)[C@H]2O)C=CC1` [NADH], the thermodynamic data result was “evaluating the interaction of BmfaldDH with formate and NADH”.
As for `O=CO` [formate], the entry is “isothermal titration calorimetry (ITC) to measure the thermodynamic data”.
